Measured values from patent publication US11912699B2, “Tau-protein targeting compounds and associated” (Arvinas Operations, Inc., priority 2019, dated 2024).

Target: T1, Tau P301L (Homo sapiens, UniProt P10636, P618L)
T1 construct: expressed in transfected cells
Experiment: In vitro tau degradation assay in CHOK1 Tau P301L cells (sarkosyl insoluble tau, WES)
Assay type: cell-based
Conditions: CHO-K1; remaining tau protein in sarkosyl insoluble pellet; CHOK1 Tau P301L cells treated 48 hours with test compound at 1 μM, doxycycline removed for the last 24 hours; relative to DMSO doxycycline control; read-out: Tau Protein Degradation effect at 1 μM
Method in brief: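 T-Rex CHOK1 clone D1 with doxycycline-inducible (1 μg/ml) Tau P301L treated 48 h with compound at 1 μM, doxycycline removed for the final 24 h. Sarkosyl-insoluble tau quantified by WES capillary electrophoresis with Tau1 antibody, expressed relative to DMSO doxycycline control and binned as ≤50% or >50% remaining.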

T1 sequence (P10636 1-441 isoform P10636-8 P301L): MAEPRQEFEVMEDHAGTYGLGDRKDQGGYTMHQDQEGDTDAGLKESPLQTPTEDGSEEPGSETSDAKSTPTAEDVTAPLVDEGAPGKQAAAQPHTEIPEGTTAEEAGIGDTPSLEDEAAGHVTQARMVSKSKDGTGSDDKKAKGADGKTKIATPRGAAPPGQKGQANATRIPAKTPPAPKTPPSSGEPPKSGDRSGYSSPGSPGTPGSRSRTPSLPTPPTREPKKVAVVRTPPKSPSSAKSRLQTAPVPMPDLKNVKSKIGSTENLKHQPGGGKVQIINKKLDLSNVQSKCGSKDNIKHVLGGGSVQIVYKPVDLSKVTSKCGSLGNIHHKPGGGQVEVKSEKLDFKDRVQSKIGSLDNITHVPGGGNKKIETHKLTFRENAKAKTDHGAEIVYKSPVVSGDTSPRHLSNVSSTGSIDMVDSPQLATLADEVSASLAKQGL

| SMILES | remaining activity at 1 µM [%] |
| --- | --- |
| Cn1c2ccncc2c2ccc(-c3ccc(OC4CC5(C4)CN(C(=O)CN4CCC(OC6CN(c7ccc8c(c7)C(=O)N(C7CCC(=O)NC7=O)C8=O)C6)CC4)C5)nc3)cc21 (stereo not shown) [Compound 462, 2-(2,6-dioxopiperidin-3-yl)-5-(3-((1-(2-(6-((5-(5-methyl-5H-pyrido[4,3-b]indol-7-yl)pyridin-2-yl)oxy)-2-azaspiro[3.3]heptan-2-yl)-2-oxoethyl)piperidin-4-yl)oxy)azetidin-1-yl)isoindoline-1,3-dione] | > 50 |
| Cc1ccc(-c2cn3ccc(N(C)CCOCCOCCOc4ccc5c(c4)C(=O)N(C4CCC(=O)NC4=O)C5=O)cc3n2)cc1 (stereo not shown) [Compound 463, 2-(2,6-dioxopiperidin-3-yl)-5-(2-(2-(2-(methyl(2-(p-tolyl)imidazo[1,2-a]pyridin-7-yl)amino)ethoxy)ethoxy)ethoxy)isoindoline-1,3-dione] | < 50 |
| Cn1c2ccncc2c2ccc(-c3ccc(OC4CC5(C4)CN(C(=O)CC4CCN(CC6CN(c7ccc8c(c7)C(=O)N(C7CCC(=O)NC7=O)C8=O)C6)CC4)C5)nc3)cc21 (stereo not shown) [Compound 472, 2-(2,6-dioxopiperidin-3-yl)-5-(3-((4-(2-(6-((5-(5-methyl-5H-pyrido[4,3-b]indol-7-yl)pyridin-2-yl)oxy)-2-azaspiro[3.3]heptan-2-yl)-2-oxoethyl)piperidin-1-yl)methyl)azetidin-1-yl)isoindoline-1,3-dione] | < 50 |
| O=C1CCC(N2C(=O)c3ccc(OCCN4CC5(C4)CN(C[C@H]4C[C@H](Oc6ccc(-c7ccn8c(n7)nc7ccccc78)cn6)C4)C5)cc3C2=O)C(=O)N1 (stereo partly shown) [Compound 473, 5-(2-(6-(((1r,3r)-3-((5-(benzo[4,5]imidazo[1,2-a]pyrimidin-2-yl)pyridin-2-yl)oxy)cyclobutyl)methyl)-2,6-diazaspiro[3.3]heptan-2-yl)ethoxy)-2-(2,6-dioxopiperidin-3-yl)isoindoline-1,3-dione] | < 50 |
| N#Cc1cc(-c2ccc3c4cnccc4n(C(F)F)c3c2)cnc1N1CCC(CCN2CCN(c3ccc4c(c3)CN(C3CCC(=O)NC3=O)C4=O)CC2)CC1 (stereo not shown) [Compound 475, 5-(5-(difluoromethyl)-5H-pyrido[4,3-b]indol-7-yl)-2-(4-(2-(4-(2-(2,6-dioxopiperidin-3-yl)-1-oxoisoindolin-5-yl)piperazin-1-yl)ethyl)piperidin-1-yl)nicotinonitrile] | > 50 |
| Cn1c2ccncc2c2ccc(-c3ccc(O[C@H]4C[C@H](CN5CCC(CCOc6ccc7c(c6)C(=O)N(C6CCC(=O)NC6=O)C7=O)CC5)C4)nc3)cc21 (stereo partly shown) [Compound 478, 2-(2,6-dioxopiperidin-3-yl)-5-(2-(1-(((1r,3r)-3-((5-(5-methyl-5H-pyrido[4,3-b]indol-7-yl)pyridin-2-yl)oxy)cyclobutyl)methyl)piperidin-4-yl)ethoxy)isoindoline-1,3-dione] | > 50 |
| Nc1cccc2cnc(-n3ccc4cc(N5CCC(CCN6CCN(c7ccc8c(c7)C(=O)N(C7CCC(=O)NC7=O)C8=O)CC6)CC5)ncc43)cc12 (stereo not shown) [Compound 480, 5-[4-(2-[1-[1-(5-aminoisoquinolin-3-yl)pyrrolo[2,3-c]pyridin-5-yl]piperidin-4-yl]ethyl)piperazin-1-yl]-2-(2,6-dioxopiperidin-3-yl)isoindole-1,3-dione] | > 50 |
| O=C1CCC(N2C(=O)c3ccc(OCCN4CCC(OC5CN(c6ncc(-c7ccn8c(n7)nc7ccccc78)cc6C(F)(F)F)C5)CC4)cc3C2=O)C(=O)N1 (stereo not shown) [Compound 483, 5-(2-(4-((1-(5-(benzo[4,5]imidazo[1,2-a]pyrimidin-2-yl)-3-(trifluoromethyl)pyridin-2-yl)azetidin-3-yl)oxy)piperidin-1-yl)ethoxy)-2-(2,6-dioxopiperidin-3-yl)isoindoline-1,3-dione] | > 50 |
| Cn1c2ccncc2c2ccc(-c3ccc(O[C@H]4C[C@H](CN5CCC(CC6CCN(c7ccc8c(c7)C(=O)N(C7CCC(=O)NC7=O)C8=O)CC6)CC5)C4)nc3)cc21 (stereo partly shown) [Compound 485, 2-(2,6-dioxopiperidin-3-yl)-5-(4-((1-(((1r,3r)-3-((5-(5-methyl-5H-pyrido[4,3-b]indol-7-yl)pyridin-2-yl)oxy)cyclobutyl)methyl)piperidin-4-yl)methyl)piperidin-1-yl)isoindoline-1,3-dione] | < 50 |
| O=C1CCC(N2C(=O)c3ccc(N4CCN(CCC5CCN(c6ncc(-c7ccc8c9cnccc9n(C(F)F)c8c7)cc6C(F)(F)F)CC5)CC4)cc3C2=O)C(=O)N1 (stereo not shown) [Compound 489, 5-[4-[2-[1-[5-[5-(difluoromethyl)pyrido[4,3-b]indol-7-yl]-3-(trifluoromethyl)-2-pyridyl]-4-piperidyl]ethyl]piperazin-1-yl]-2-(2,6-dioxo-3-piperidyl)isoindoline-1,3-dione trifluroacetate] | < 50 |
| Cn1c2ccncc2c2ccc(-c3ccc(O[C@H]4C[C@H](OC5CCN(c6ccc7c(c6)C(=O)N(C6CCC(=O)NC6=O)C7=O)CC5)C4)nc3)cc21 (stereo partly shown) [Compound 493, 2-(2,6-dioxopiperidin-3-yl)-5-(4-((1r,3r)-3-((5-(5-methyl-5H-pyrido[4,3-b]indol-7-yl)pyridin-2-yl)oxy)cyclobutoxy)piperidin-1-yl) isoindoline-1,3-dione] | < 50 |
| O=C1CCC(N2C(=O)c3ccc(N4CCN(CC5CCN(c6ncc(-c7ccc8c9cnccc9n(C(F)F)c8c7)cc6C(F)(F)F)CC5)CC4)cc3C2=O)C(=O)N1 (stereo not shown) [Compound 494, 5-(4-((1-(5-(5-(difluoromethyl)-5H-pyrido[4,3-b]indol-7-yl)-3-(trifluoromethyl)pyridin-2-yl)piperidin-4-yl)methyl)piperazin-1-yl)-2-(2,6-dioxopiperidin-3-yl)isoindoline-1,3-dione] | < 50 |
| Cn1c2ccncc2c2ccc(C3CCN(CCC4CCN(c5ccc6c(c5)C(=O)N(C5CCC(=O)NC5=O)C6=O)CC4)CC3)cc21 (stereo not shown) [Compound 498, 2-(2,6-dioxopiperidin-3-yl)-5-(4-(2-(4-(5-methyl-5H-pyrido[4,3-b]indol-7-yl)piperidin-1-yl)ethyl)piperidin-1-yl)isoindoline-1,3-dione] | < 50 |
| Cn1c2ccncc2c2ccc(C3CCN(CCC4CCN(CC5CCN(c6ccc7c(c6)C(=O)N(C6CCC(=O)NC6=O)C7=O)CC5)CC4)CC3)cc21 (stereo not shown) [Compound 502, 2-(2,6-dioxopiperidin-3-yl)-5-(4-((4-(2-(4-(5-methyl-5H-pyrido[4,3-b]indol-7-yl)piperidin-1-yl)ethyl)piperidin-1-yl)methyl)piperidin-1-yl)isoindoline-1,3-dione] | < 50 |
| Cn1c2ccncc2c2ccc(-c3ccc(C4CCN(CCC5CCN(c6ccc7c(c6)C(=O)N(C6CCC(=O)NC6=O)C7=O)CC5)CC4)nc3)cc21 (stereo not shown) [Compound 508, 2-(2,6-dioxopiperidin-3-yl)-5-(4-(2-(4-(5-(5-methyl-5H-pyrido[4,3-b]indol-7-yl)pyridin-2-yl)piperidin-1-yl)ethyl)piperidin-1-yl)isoindoline-1,3-dione] | < 50 |
| CN(C)c1cccc2cnc(-n3ccc4cc(N5CCC(CCN6CCN(c7ccc8c(c7)C(=O)N(C7CCC(=O)NC7=O)C8=O)CC6)CC5)ncc43)cc12 (stereo not shown) [Compound 512, 5-(4-(2-(1-(1-(5-(dimethylamino)iso-quinolin-3-yl)-1H-pyrrolo[2,3-c]pyridin-5-yl)piperidin-4-yl)ethyl)piperazin-1-yl)-2-(2,6-dioxopiperidin-3-yl)isoindoline-1,3-dione] | < 50 |
